Biological target: T1, Human Factor XIIa (Homo sapiens, UniProt P00748)
T1 construct: purchased Enzyme Research Laboratories
T1 sequence (P00748 373-615 limits assumed): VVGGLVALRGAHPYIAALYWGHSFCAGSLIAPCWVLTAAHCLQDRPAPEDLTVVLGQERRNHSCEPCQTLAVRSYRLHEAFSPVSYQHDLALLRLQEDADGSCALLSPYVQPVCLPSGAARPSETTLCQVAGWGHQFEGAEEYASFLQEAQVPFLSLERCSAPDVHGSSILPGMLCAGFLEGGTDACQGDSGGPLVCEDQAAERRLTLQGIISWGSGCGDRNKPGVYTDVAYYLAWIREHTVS
T1 sequence (P00748 20-372 partner limits assumed): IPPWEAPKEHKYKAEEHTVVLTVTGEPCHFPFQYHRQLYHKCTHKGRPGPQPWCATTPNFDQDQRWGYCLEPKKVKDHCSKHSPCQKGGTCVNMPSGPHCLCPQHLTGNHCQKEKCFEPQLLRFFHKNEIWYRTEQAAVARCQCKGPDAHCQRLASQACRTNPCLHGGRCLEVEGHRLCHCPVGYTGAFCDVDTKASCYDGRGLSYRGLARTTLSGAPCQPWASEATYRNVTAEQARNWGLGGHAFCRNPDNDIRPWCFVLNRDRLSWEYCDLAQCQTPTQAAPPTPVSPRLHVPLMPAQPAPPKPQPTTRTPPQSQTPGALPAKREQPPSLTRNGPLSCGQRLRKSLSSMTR
Assay: Determination of FXIIa inhibition (in vitro IC50 assay, fluorogenic substrate H-DPro-Phe-Arg-AFC)
Format: biochemical
Details: human Factor XIIa, fluorogenic substrate H-DPro-Phe-Arg-AFC at Km concentration, 5 min, 25 °C; for IC50: class symbols, read-out: Human FXIIa IC50; for Human FXIIa inhibition (compounds that did not achieve 50% inhibition): class symbols H1/H2 for % inhibition at top concentration
Procedure, shortened: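 Human FXIIa incubated at 25 °C with compound and H-DPro-Phe-Arg-AFC at its Km concentration. Linear fluorescence increase monitored over 5 min, expressed as % of uninhibited activity; IC50 is concentration giving 50% inhibition.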

IC50 | Human FXIIa inhibition (compounds that did not achieve 50% inhibition) | SMILES
40000 to 100000 nM | – | Cc1ncccc1NCC12CC(COc3cc(C)n(C)c(=O)c3)(CN1C(=O)NC1(c3ccccc3)CC1)C2 [Example 56, 4-(((1,6-dimethyl-2-oxo-1,2-dihydropyridin-4-yl)oxy)methyl)-1-(((2-methylpyridin-3-yl)amino)methyl)-N-(1-phenylcyclopropyl)-2-azabicyclo[2.1.1]hexane-2-carboxamide]
1 to 10 nM | – | Cc1cc(OCC23CN(C(=O)NC4(c5ccccc5)CC4)C(CNc4cccc5c(N)nccc45)(C2)C3)cc(=O)n1C [Example 57, 1-(((1-aminoisoquinolin-5-yl)amino)methyl)-4-(((1,6-dimethyl-2-oxo-1,2-dihydropyridin-4-yl)oxy)methyl)-N-(1-phenylcyclopropyl)-2-azabicyclo[2.1.1]hexane-2-carboxamide]
10000 to 40000 nM | – | Cc1cc(OCC23CN(C(=O)NC4(c5ccccc5)CC4)C(CNc4ccc(N)nc4)(C2)C3)cc(=O)n1C [Example 58, 1-(((6-aminopyridin-3-yl)amino)methyl)-4-(((1,6-dimethyl-2-oxo-1,2-dihydropyridin-4-yl)oxy)methyl)-N-(1-phenylcyclopropyl)-2-azabicyclo[2.1.1]hexane-2-carboxamide]
1 to 10 nM | – | Nc1nccc2c(NCC34CC(COc5cc6n(c(=O)c5)CCC6)(CN3C(=O)NC3(c5ccccc5)CC3)C4)cccc12 [Example 59, 1-(((1-Aminoisoquinolin-5-yl)amino)methyl)-4-(((5-oxo-1,2,3,5-tetrahydroindolizin-7-yl)oxy)methyl)-N-(1-phenylcyclopropyl)-2-azabicyclo[2.1.1]hexane-2-carboxamide]
10 to 100 nM | – | Cn1ccc(OCC23CN(C(=O)NC4C5CC6CC(C5)CC4C6)C(CNc4cccc5c(N)nccc45)(C2)C3)cc1=O (stereo not drawn) [Example 61, N-(adamantan-2-yl)-1-(((1-aminoisoquinolin-5-yl)amino)methyl)-4-(((1-methyl-2-oxo-1,2-dihydropyridin-4-yl)oxy)methyl)-2-azabicyclo[2.1.1]hexane-2-carboxamide]
1 to 10 nM | – | Cn1ccc(OCC23CN(C(=O)Nc4cc(F)cc5c4OCOC5)C(CNc4cccc5c(N)nccc45)(C2)C3)cc1=O [Example 62, 1-(((1-aminoisoquinolin-5-yl)amino)methyl)-N-(6-fluoro-4H-benzo[d][1,3]dioxin-8-yl)-4-(((1-methyl-2-oxo-1,2-dihydropyridin-4-yl)oxy)methyl)-2-azabicyclo [2.1.1]hexane-2-carboxamide]
10 to 100 nM | – | Cn1ccc(OCC23CN(C(N)=O)C(CNc4cccc5c(N)nccc45)(C2)C3)cc1=O [Example 63, 1-(((1-Aminoisoquinolin-5-yl)amino)methyl)-4-(((1-methyl-2-oxo-1,2-dihydropyridin-4-yl)oxy)methyl)-2-azabicyclo[2.1.1]hexane-2-carboxamide]
10 to 100 nM | – | Cn1ccc(OCC23CN(C(=O)NC4(c5ccccc5)CCOCC4)C(CNc4cccc5c(N)nccc45)(C2)C3)cc1=O [Example 64, 1-(((1-aminoisoquinolin-5-yl)amino)methyl)-4-(((1-methyl-2-oxo-1,2-dihydropyridin-4-yl)oxy)methyl)-N-(4-phenyltetrahydro-2H-pyran-4-yl)-2-azabicyclo[2.1.1]hexane-2-carboxamide]
1 to 10 nM | – | Cc1cc(OCC23CN(C(=O)Nc4ccc5c(c4)CCC5)C(CNc4cccc5c(N)nccc45)(C2)C3)cc(=O)n1C [Example 65, 1-(((1-Aminoisoquinolin-5-yl)amino)methyl)-N-(2,3-dihydro-1H-inden-5-yl)-4-(((1,6-dimethyl-2-oxo-1,2-dihydropyridin-4-yl)oxy)methyl)-2-azabicyclo[2.1.1]hexane-2-carboxamide]
1 to 10 nM | – | Cn1ccc(OCC23CN(C(=O)NC(C)(C)c4ccccc4)C(CNc4cccc5c(N)nccc45)(C2)C3)cc1=O [Example 66, 1-(((1-Aminoisoquinolin-5-yl)amino)methyl)-4-(((1-methyl-2-oxo-1,2-dihydropyridin-4-yl)oxy)methyl)-N-(2-phenylpropan-2-yl)-2-azabicyclo[2.1.1]hexane-2-carboxamide]
– | H2 (>20% inhibition @ 100 μM) | Cc1cc(OCC23CN(C(=O)NC4(c5ccccc5)CC4)C(CNc4cccnc4F)(C2)C3)cc(=O)n1C [Example 67, 4-(((1,6-dimethyl-2-oxo-1,2-dihydropyridin-4-yl)oxy)methyl)-1-(((2-fluoropyridin-3-yl)amino)methyl)-N-(1-phenylcyclopropyl)-2-azabicyclo[2.1.1]hexane-2-carboxamide]
– | H1 (>20% inhibition @ 40 μM) | Cc1cc(OCC23CN(C(=O)NC4(c5ccccc5)CC4)C(CNc4ccccc4C#N)(C2)C3)cc(=O)n1C [Example 68, 1-(((2-cyanophenyl)amino)methyl)-4-(((1,6-dimethyl-2-oxo-1,2-dihydropyridin-4-yl)oxy)methyl)-N-(1-phenylcyclopropyl)-2-azabicyclo[2.1.1]hexane-2-carboxamide]
1 to 10 nM | – | Cn1ccc(OCC23CN(C(=O)NC4(c5ccccc5)COC4)C(CNc4cccc5c(N)nccc45)(C2)C3)cc1=O [Example 69, 1-(((1-aminoisoquinolin-5-yl)amino)methyl)-4-(((1-methyl-2-oxo-1,2-dihydropyridin-4-yl)oxy)methyl)-N-(3-phenyloxetan-3-yl)-2-azabicyclo [2.1.1]hexane-2-carboxamide]
10 to 100 nM | – | Cc1cc(OCC23CN(C(=O)N4CCC(c5ccccc5)CC4)C(CNc4cccc5c(N)nccc45)(C2)C3)cc(=O)n1C [Example 70, 4-((1-(((1-aminoisoquinolin-5-yl)amino)methyl)-2-(4-phenylpiperidine-1-carbonyl)-2-azabicyclo[2.1.1]hexan-4-yl)methoxy)-1,6-dimethylpyridin-2(1H)-one]
40000 to 100000 nM | – | Cc1cc(OCC23CN(C(=O)NC4(c5ccccc5)CC4)C(CNc4cccnc4O)(C2)C3)cc(=O)n1C [Example 71, 4-(((1,6-Dimethyl-2-oxo-1,2-dihydropyridin-4-yl)oxy)methyl)-1-(((2-hydroxypyridin-3-yl)amino)methyl)-N-(1-phenylcyclopropyl)-2-azabicyclo[2.1.1]hexane-2-carboxamide]
10 to 100 nM | – | Cc1cc(OCC23CN(C(=O)N4CC(C5CCOCC5)C4)C(CNc4cccc5c(N)nccc45)(C2)C3)cc(=O)n1C [Example 72, 4-((1-(((1-aminoisoquinolin-5-yl)amino)methyl)-2-(3-(tetrahydro-2H-pyran-4-yl)azetidine-1-carbonyl)-2-azabicyclo[2.1.1]hexan-4-yl)methoxy)-1,6-dimethylpyridin-2(1H)-one]
10 to 100 nM | – | COCCOCCNC(=O)N1CC2(COc3ccn(C)c(=O)c3)CC1(CNc1cccc3c(N)nccc13)C2 [Example 73, 1-(((1-aminoisoquinolin-5-yl)amino)methyl)-N-(2-(2-methoxyethoxy)ethyl)-4-(((1-methyl-2-oxo-1,2-dihydropyridin-4-yl)oxy)methyl)-2-azabicyclo[2.1.1]hexane-2-carboxamide]
10 to 100 nM | – | Cn1ccc(OCC23CN(C(=O)NC4CCC(S(=O)(=O)C5CCCCC5)CC4)C(CNc4cccc5c(N)nccc45)(C2)C3)cc1=O (stereo not drawn) [Example 74, 1-(((1-aminoisoquinolin-5-yl)amino)methyl)-N-(4-(cyclohexylsulfonyl)cyclohexyl)-4-(((1-methyl-2-oxo-1,2-dihydropyridin-4-yl)oxy)methyl)-2-azabicyclo[2.1.1]hexane-2-carboxamide]

From US20260347347A1, “2-AZA-AND 2-OXABICYCLO[2.1.1]HEXANE DERIVATIVES AS FACTOR XIIA ENZYME INHIBITORS” (KALVISTA PHARMACEUTICALS LIMITED, priority 2022, published 2026)
